The term DC50 denotes the midpoint of the concentration-degradation curve.

The text below walks through data of US20240383908A1, “SYNTHESIS AND APPLICATION OF PHOSPHATASE DEGRADER” (HINOVA PHARMACEUTICALS INC., priority 2021, published 2024).

For the test, the target named is T1, SHP2 protein (Homo sapiens, UniProt Q06124).
T1 sequence (Q06124 1-593): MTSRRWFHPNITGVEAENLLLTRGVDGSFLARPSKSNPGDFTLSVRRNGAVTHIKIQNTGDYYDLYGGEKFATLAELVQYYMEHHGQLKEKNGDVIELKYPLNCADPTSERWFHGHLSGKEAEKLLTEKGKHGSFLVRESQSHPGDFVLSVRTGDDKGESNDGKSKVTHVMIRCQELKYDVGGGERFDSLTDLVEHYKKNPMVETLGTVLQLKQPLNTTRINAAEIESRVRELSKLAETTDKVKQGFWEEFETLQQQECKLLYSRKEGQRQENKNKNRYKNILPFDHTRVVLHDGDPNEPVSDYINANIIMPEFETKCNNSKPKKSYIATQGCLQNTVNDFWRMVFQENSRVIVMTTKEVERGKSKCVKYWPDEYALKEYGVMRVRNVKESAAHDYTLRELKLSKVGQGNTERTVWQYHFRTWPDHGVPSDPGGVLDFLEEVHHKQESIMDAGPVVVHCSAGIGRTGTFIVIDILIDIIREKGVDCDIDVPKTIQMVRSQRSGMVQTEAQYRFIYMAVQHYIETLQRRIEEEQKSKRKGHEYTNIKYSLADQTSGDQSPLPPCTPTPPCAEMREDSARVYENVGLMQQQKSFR
Description: Degradation activity on SHP2 protein in MV-411 cells (Western blot, DC50). Type of test: cell-based. Details: endogenous in cells. The conditions noted are these: MV411 cells, 24 hours, read-out: Degradation activity for differenct cell lines MV411 (DC50). The protocol:
• MV-411 cell line (COBIER, CBP-60522) • FBS (GEMINI, Cat. No. 900-108) • 0.01M PBS (Biosharp, Cat. No. 162262) • IMDM (Hyclone, Cat. No. SH30228.01) • Penicillin-Streptomycin (Gibco, Cat. No. 15140122) • DMSO (Sigma, Cat. No. D5879) • Centrifuge Tube, 15 ml (Excell Bio, Cat. No. CS015-0001) • Cell Culture Dish, (WHB, Cat. No. CS016-0128) • 12-well cell culture cluster (Corning, Cat. No. 3513) • RIPA lysate buffer (Thermo, Cat. No. 89900) • Protein Loding Buffer (Beyotime, Cat. No. P0015L) • BCA Protein Assay Kit (EpiZyme, Cat. No. ZJ102) • SDS-PAGE Fast Preparation Kit (EpiZyme, Cat. No. PG112) • Anti-GAPDH (14C10) Rabbit mAb (CST, Cat. No. 2118L) • Anti-SHP2 rabbit mAb (CST, Cat. No. 37525) • Peroxidase Affinipure (HRP) Goat Anti-Rabbit IgG (Zen Bioscience, Cat. No. 511203) • TBST (Biosharp, Cat. No. BL601A) • ECL chemiluminescence kit (4A Biotech, Cat. No. 4AW011-200)
• (1) Cell culture medium: IMIDM medium+10% FBS+1% Pen Strep; • (2) PBS buffer: PBS powder was dissolved in 2 L of ultrapure water and sterilized; • (3) Cell lysate: RIPA lysate buffer is added with protease inhibitors at a ratio of 1:1000 before use.
(1) MV-411 cells were cultured in the cell culture medium, and then well-growing cells were selected and inoculated in a 12-well plate, with 1 mL/well and 1×10^6 cells/well. The plate was incubated overnight in a 5% CO2 cell incubator at 37° C.
(2) 10 mM storage solution of each drug was prepared using dimethylsulfoxide (DMSO). The stock solution was diluted gradually with DMSO before use, and then 1 μL of the compound solution was added to the cell culture well (to ensure that the DMSO concentration in the culture system was […]), so that the final drug concentration is 100 nM, 10 nM, 3 nM, 1 nM, 0.3 nM, and 0.1 nM. Two wells were set for each concentration. The plate was gently shaken and mixed. Additionally, negative control wells (containing an equal amount of DMSO) and positive control wells were included.
(3) After 24 hours of cultivation, the cells were lysed using RIPA cell lysate, and the proteins were extracted. The protein concentration was measured using a BCA assay kit. 5× concentrated protein buffer was loaded, heated at 100° C. for 5 min, and then the sample was stored at −20° C.
(4) For each well, 30 μg of protein was loaded to polyacrylamide gel for electrophoresis.
(5) The protein was transferred from polyacrylamide gel to PVDF membrane, and sealed at room temperature with 5% skimmed milk for 1 h, which was then incubated with the primary antibodies (Anti-SHP2 rabbit mAb and Anti-GAPDH rabbit mAb) at 4° C. overnight. The membrane was washed three times with TBST solution, 10 minutes for each time. After that, the membrane was incubated with the secondary antibodies (horseradish peroxidase labeled goat anti-rabbit IgG) at room temperature for 2 h, and then washed three times with TBST solution, 10 minutes for each time, followed by exposure.
(6) The images were analyzed with Image J grayscale, and the degradation ratio of protein bands in the test group was calculated, based on the negative control group (DMSO) (100%).
(7) Using the Dose-response-inhibition equation in the data processing software GraphPad Prism 8, the DC50 value was obtained (which represents the drug concentration corresponding to 50% degradation of the target protein).
Finally, ECL detection solution was added for color development, and photos were taken with an automatic chemiluminescence instrument, so as to collect images and analyze them.
In general terms: In western blotting, separated proteins are transferred to a membrane and probed.

As for `CC1(CN)CCN(c2cnc(Sc3ccc(NC(=O)COCCOCCOCCOCC(=O)Nc4ccc5c(c4)C(=O)N(C4CCC(=O)NC4=O)C5)cc3Cl)cn2)CC1` (stereo not shown) [Compound 11], the half-maximal degradation concentration (DC50) is more than 1000 nM.
To `CN(Cc1ccc2c(c1)CN(C1CCC(=O)NC1=O)C2=O)C(=O)c1ccc(N2CC[C@@H](OCCCCCCCC(=O)Nc3cccc(Sc4cnc(N5CCC(C)(N)CC5)cn4)c3)[C@@H](F)C2)nn1` (stereo partly shown) [Compound 163] belongs less than 100 nM; to `NC1(CF)CCN(c2cnc(Sc3cccc(NC(=O)CCCCN4CC5(CCN(c6ccc(C(=O)NCc7ccc8c(c7)CN(C7CCC(=O)NC7=O)C8=O)nn6)C5)C4)c3)cn2)CC1` (stereo not shown) [Compound 137], more than 1000 nM; to `CC1(CN)CCN(c2cnc(Sc3cccc(NC(=O)CCC(=O)N4CCN(CCCCCCCCC(=O)NCc5ccc6c(c5)CN(C5CCC(=O)NC5=O)C6=O)CC4)c3Cl)cn2)CC1` (stereo not shown) [Compound 15, 9-(4-(4-((3-((5-(4-(aminomethyl)-4-methylpyridin-1-yl)pyrazin-2-yl)thio)-2-chlorophenyl)amino)-4-oxobutyryl)piperazin-1-yl)-N-((2-(2,6-dioxopiperidin-3-yl)-1-oxoisoindol-5-yl)methyl)nonanamide], less than 100 nM.
Regarding `Cc1ncsc1-c1ccc([C@H](C)NC(=O)[C@@H]2C[C@@H](O)CN2C(=O)[C@@H](NC(=O)c2cnc(N3CCN(CCCC(=O)Nc4cccc(Sc5cnc(N6CCC(C)(N)CC6)cn5)c4)CC3)nc2)C(C)(C)C)cc1` [Compound 82], the 50% degradation concentration (DC50) was less than 100 nM.
To `CC1(N)CCN(c2cnc(Sc3cccc(NC(=O)CCCN4CCN(c5ncc(C(=O)NCc6ccc7c(c6)CN(C6CCC(=O)NC6=O)C7=O)cn5)CC4)c3)cn2)CC1` (stereo not shown) [Compound 83] belongs more than 1000 nM.
Turning to `CN(Cc1ccc2c(c1)CN(C1CCC(=O)NC1=O)C2=O)C(=O)c1cnc(N2CCC3(CN(CCCCCCC(=O)Nc4cccc(Sc5cnc(N6CCC(C)(N)CC6)cn5)c4)C3)C2)c(C(F)(F)F)c1` (stereo not shown) [Compound 171], the DC50 is less than 100 nM.
For `CC1(N)CCN(c2cnc(Sc3cccc(NC(=O)[C@H]4CCC[C@@H]4C(=O)N4CCN(CCCCCCCCC(=O)Nc5ccc6c(c5)C(=O)N(C5CCC(=O)NC5=O)C6)CC4)c3)cn2)CC1` (stereo partly shown) [Compound 24], the DC50 was more than 1000 nM.
For `CC1(N)CCN(c2cnc(Sc3cccc(NC(=O)[C@H]4CCC[C@@H]4C(=O)N4CCN(CCCCCCCCC(=O)NCc5ccc6c(c5)CN(C5CCC(=O)NC5=O)C6=O)CC4)c3)cn2)CC1` (stereo partly shown) [Compound 25], the DC50 was more than 1000 nM.
As to `CC1(N)CCN(c2cnc(Sc3cccc(NC(=O)CCCCCCCN4CC5(CC(n6cc(C(=O)NCc7ccc8c(c7)CN(C7CCC(=O)NC7=O)C8=O)cn6)C5)C4)c3)cn2)CC1` (stereo not shown) [Compound 128], the DC50 is less than 100 nM.
Take `CC1(N)CCN(c2cnc(Sc3cccc(NC(=O)CCCCCCN4CC5(CCN(C6CCC(C(=O)NCc7ccc8c(c7)CN(C7CCC(=O)NC7=O)C8=O)CC6)C5)C4)c3)cn2)CC1` (stereo not shown) [Compound 158, 4-(2-(7-((3-((5-(4-amino-4-methylpyridin-1-yl)pyrazin-2-yl)thio)phenyl)amino)-7-oxoheptyl)-2,6-diazaspiro[3.4]octan6-yl)-N-((2-(2,6-dioxopiperidin-3-yl)-1-oxoisoindol-5-yl)methyl)cyclohexane-1-formamide]: the 50% degradation concentration (DC50) was in the range of 100 to 1000 nM.
To `Cc1ncsc1-c1ccc([C@H](C)NC(=O)[C@@H]2C[C@@H](O)CN2C(=O)[C@@H](NC(=O)c2cnc(N3CCC4(CN(CCCCC(=O)Nc5cccc(Sc6cnc(N7CCC(C)(N)CC7)cn6)c5)C4)C3)nc2)C(C)(C)C)cc1` [Compound 88] belongs less than 100 nM; to `Cc1ncsc1-c1ccc([C@H](C)NC(=O)[C@@H]2C[C@@H](O)CN2C(=O)[C@@H](NC(=O)c2cnc(N3CCN(CCOCCOCC(=O)Nc4cccc(Sc5cnc(N6CCC(C)(N)CC6)cn5)c4)CC3)nc2)C(C)(C)C)cc1` [Compound 66], less than 100 nM.
As for `Cc1ncsc1-c1ccc([C@H](C)NC(=O)[C@@H]2C[C@@H](O)CN2C(=O)[C@@H](NC(=O)/C=C/C(=O)N2CC3(CN(CCCCCCCC(=O)Nc4cccc(Sc5cnc(N6CCC(C)(N)CC6)cn5)c4)C3)C2)C(C)(C)C)cc1` [Compound 115], the 50% degradation concentration (DC50) was more than 1000 nM.
To `CC1(N)CCN(c2cnc(Sc3cccc(NC(=O)CCCCCCCCN4C5CCC4CN(c4ccc(CN6CCN(c7ccc8c(c7)C(=O)N(C7CCC(=O)NC7=O)C8=O)CC6)nn4)C5)c3)cn2)CC1` (stereo not shown) [Compound 149] belongs less than 100 nM.
`CC1(C(N)=O)CCN(c2cnc(Sc3cccc(NC(=O)CCCCCCCCN4CCN(c5ncc(C(=O)NCc6cccc7c6CN(C6CCC(=O)NC6=O)C7=O)cn5)CC4)c3)cn2)CC1` (stereo not shown) [Compound 61]: the half-maximal degradation concentration (DC50) was more than 1000 nM.
The same measure for `C[C@@H]1OCC2(CCN(c3cnc(Sc4cccc(NC(=O)CCN5CC6(CCN(c7ccc(COc8cccc9c8CN(C8CCC(=O)NC8=O)C9=O)nn7)C6)C5)c4)cn3)CC2)[C@@H]1N` (stereo partly shown) [Compound 132]: less than 100 nM; for `Cc1ncsc1-c1ccc([C@H](C)NC(=O)[C@@H]2C[C@@H](O)CN2C(=O)[C@@H](NC(=O)CCCCCCCCC(=O)Nc2cccc(Sc3cnc(N4CCC(C)(N)CC4)cn3)c2)C(C)(C)C)cc1` [Compound 52]: less than 100 nM; for `CC1(N)CCN(c2cnc(Sc3cccc(NC(=O)CCCCCCCC(=O)NCc4ccc5c(c4)CN(C4CCC(=O)NC4=O)C5=O)c3)cn2)CC1` (stereo not shown) [Compound 2]: 100 to 1000 nM.
On to `Cc1cc(C(=O)NCc2ccc3c(c2)CN(C2CCC(=O)NC2=O)C3=O)n(C2CCN(CCCCCCCCC(=O)Nc3cccc(Sc4cnc(N5CCC(C)(N)CC5)cn4)c3)CC2)n1` (stereo not shown) [Compound 80], for which the DC50 is less than 100 nM.
`CC1(N)CCN(c2cnc(Sc3cccc(NC(=O)CCN4CC5(CCN(c6ccc(C(=O)NCc7ccc8c(c7)CN(C7CCC(=O)NC7=O)C8=O)nn6)C5)C4)c3)cn2)CC1` (stereo not shown) [Compound 97]: the half-maximal degradation concentration (DC50) was more than 1000 nM.
To `Cc1ncsc1-c1ccc([C@H](C)NC(=O)[C@@H]2C[C@@H](O)CN2C(=O)[C@@H](NC(=O)CCCCCCCCCCCCCCC(=O)Nc2cccc(Sc3cnc(N4CCC(C)(N)CC4)cn3)c2)C(C)(C)C)cc1` [Compound 51] belongs less than 100 nM.
The same measure for `CC1(N)CCN(c2cnc(Sc3cccc(NC(=O)CCCCN4CC5(CCN(c6ncc(C(=O)NCc7ccc8c(c7)CN(C7CCC(=O)NC7=O)C8=O)cn6)C5)C4)c3)cn2)CC1` (stereo not shown) [Compound 89]: less than 100 nM; for `CC1(N)CCN(c2cnc(Sc3cccc(NC(=O)CCN4CC5(CCN(Cc6ccc(COc7cccc8c7CN(C7CCC(=O)NC7=O)C8=O)cc6)C5)C4)c3)cn2)CC1` (stereo not shown) [Compound 69]: more than 1000 nM; for `Cc1ncsc1-c1ccc([C@H](C)NC(=O)[C@@H]2C[C@@H](O)CN2C(=O)[C@@H](NC(=O)CCCCCCCCCCCCC(=O)Nc2cccc(Sc3cnc(N4CCC(C)(N)CC4)cn3)c2)C(C)(C)C)cc1` [Compound 50]: less than 100 nM.
